From patent US10294202B2, “Pyrrolidinones as herbicides” (FMC Corporation, priority 2013, dated 2019)
Like-named read-outs stand apart in the source and are kept apart here.

What was measured:
giant foxtail = experiment: Test A pre-/postemergence herbicide test; type: in vivo, Setaria faberii; conditions: for pest or weed control at 1000 g/ha: 1000 g ai/ha
In short: (§1)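 Scoring was visual, relative to untreated controls, on a 0–100 scale after about 10 greenhouse days. Preemergence treatment used a directed soil spray over seeded loam/sand; postemergence treatment targeted one- to two-leaf plants of 2–10 cm.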

wheat (winter wheat) = experiment: Test C pre-/postemergence herbicide test; type: in vivo, Triticum aestivum
In short: (§2)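 Response scores range from 0, meaning no effect, to 100, meaning complete control, assigned visually by comparison with controls roughly two weeks (13 to 15 days) after spraying. Applications were made preemergence to seeded loam–sand soil and postemergence to 1- to 4-leaf plants.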

oat, wild = experiment: Test C pre-/postemergence herbicide test; type: in vivo, Avena fatua
Source text: Seeds of plant species selected from blackgrass (Alopecurus myosuroides), ryegrass, Italian (Italian ryegrass, Lolium multiflorum), wheat (winter wheat, Triticum aestivum), galium (catchweed bedstraw, Galium aparine), corn (Zea mays), crabgrass, large (large crabgrass, Digitaria sanguinalis), foxtail, giant (giant foxtail, Setaria faberii), johnsongrass (Sorghum halepense), lambsquarters (Chenopodium album), morningglory (Ipomoea coccinea), nutsedge, yellow (yellow nutsedge, Cyperus esculentus), pigweed (Amaranthus retroflexus), ragweed (common ragweed, Ambrosia elatior), soybean (Glycine max), barnyardgrass (Echinochloa crus-galli), oilseed rape (Brassica napus), waterhemp (common waterhemp, Amaranthus rudis), kochia (Kochia scoparia), oat, wild (wild oat, Avena fatua), surinam grass (Brachiaria decumbens), foxtail, green (green foxtail, Setaria viridis), goosegrass (Eleusine indica), bromegrass, downy (downy bromegrass, Bromus tectorum), nightshade (eastern black nightshade, Solanum ptycanthum), cocklebur (common cocklebur, Xanthium strumarium), cupgrass, woolly (woolly cupgrass, Eriochloa villosa), bermudagrass (Cynodon dactylon), sunflower, (common oilseed sunflower, Helianthus annuus), Russian thistle (Salsola kali) and velvetleaf (Abutilon theophrasti) were planted into a blend of loam soil and sand and treated preemergence with test chemicals formulated in a non-phytotoxic solvent mixture which included a surfactant. At the same time, plants selected from these crop and weed species and also barley (winter barley, Hordeum vulgare), […]), chickweed (common chickweed, Stellaria media), deadnettle (henbit deadnettle, Lamium amplexicaule), and canarygrass (littleseed canarygrass, Phalaris minor) were planted in pots containing Redi-Earth® planting medium (Scotts Company, 14111 Scottslawn Road, Marysville, Ohio 43041) comprising spaghnum peat moss, vermiculite, wetting agent and starter nutrients and treated with postemergence applications of test chemicals formulated in the same manner. Plants ranged in height from 2 to 18 cm (1- to 4-leaf stage) for postemergence treatments. Treated plants and controls were maintained in a greenhouse for 13 to 15 days, after which time all species were compared to controls and visually evaluated. Plant response ratings, summarized in Table C, are based on a scale of 0 to 100 where 0 is no effect and 100 is complete control. A dash (-) response means no test result.

soybean = experiment: Test C pre-/postemergence herbicide test; type: in vivo, Glycine max
In short: as §2

wheat = experiment: Test A pre-/postemergence herbicide test; type: in vivo, Triticum aestivum; conditions: for plant injury at 500 g/ha / plant injury at 1000 g/ha: Triticum aestivum, 240 h, read-out: Plant response rating, Wheat; for plant injury at 1000 g/ha: 1000 g ai/ha
In short: as §1

ragweed = experiment: Test C pre-/postemergence herbicide test; type: in vivo, Ambrosia elatior
In short: as §2

nutsedge, yellow = experiment: Test C pre-/postemergence herbicide test; type: in vivo, Cyperus esculentus
In short: as §2

pigweed = experiment: Test A pre-/postemergence herbicide test; type: in vivo, Amaranthus retroflexus; conditions: for pest or weed control at 500 g/ha / pest or weed control at 1000 g/ha: Amaranthus retroflexus, 240 h, read-out: Plant response rating, Pigweed; for pest or weed control at 1000 g/ha: 1000 g ai/ha
In short: as §1

waterhemp = experiment: Test C pre-/postemergence herbicide test; type: in vivo, Amaranthus rudis; conditions: Preemergence
In short: as §2

sedge, umbrella = experiment: Test B flooded paddy test; type: in vivo, Cyperus difformis; conditions: 1000 g ai/ha, Flood; scale of 0 to 100 where 0 is no effect and 100 is complete control
In short: (§3)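 Paddy-water application at a 3 cm flood, young plants having two leaves. Water level maintained; greenhouse, 13–15 days; visual 0–100 control rating.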

ducksalad = experiment: Test B flooded paddy test; type: in vivo, Heteranthera limosa; conditions: 1000 g ai/ha, Flood; scale of 0 to 100 where 0 is no effect and 100 is complete control
In short: as §3

oilseed rape = experiment: Test C pre-/postemergence herbicide test; type: in vivo, Brassica napus; conditions: Preemergence
In short: as §2

[1] = Postemergence, 125 g ai/ha, 0 to 100 scale, 0 no effect, 100 complete control
[2] = Postemergence, 500 g ai/ha, 0 to 100 scale (0 no effect, 100 complete control)
[3] = Preemergence, 125 g ai/ha, visual rating on 0 to 100 scale (0 no effect, 100 complete control)
[4] = preemergence, 500 g ai/ha, 0 to 100 scale
[5] = Preemergence, 62 g ai/ha, scale 0 to 100
[6] = Preemergence, 125 g ai/ha, scale 0 to 100 (0 no effect, 100 complete control)
[7] = post-emergence, Postemergence, 500 g ai/ha, 0 to 100 scale (0 no effect, 100 complete control)
[8] = pre-emergence, preemergence, 500 g ai/ha, 0 to 100 scale
[9] = Postemergence, 31 g ai/ha, scale 0 (no effect) to 100 (complete control)
[10] = Postemergence, 62 g ai/ha, scale 0 to 100 (0 no effect, 100 complete control)
[11] = Postemergence, 125 g ai/ha, scale 0 to 100 (0 no effect, 100 complete control)
[12] = Postemergence, 250 g ai/ha, scale 0 to 100 (0 no effect, 100 complete control)
[13] = post-emergence, Postemergence, 0 to 100 scale (0 no effect, 100 complete control)
[14] = pre-emergence, Preemergence, visual rating on 0 to 100 scale (0 no effect, 100 complete control), approx. 10 days
[15] = Postemergence, 125 g ai/ha, visual rating on 0 to 100 scale (0 no effect, 100 complete control), approx. 10 days
[16] = Preemergence, 125 g ai/ha, 0 to 100 scale where 0 is no effect and 100 is complete control
[17] = Preemergence, 500 g ai/ha, visual rating on 0 to 100 scale (0 no effect, 100 complete control)
[18] = Preemergence, 62 g ai/ha, scale 0 to 100 (0 no effect, 100 complete control)
[19] = Preemergence, 125 g ai/ha, scale 0 to 100
[20] = 62 g ai/ha, scale 0 to 100 (0 no effect, 100 complete control)

## O=C1NCC(c2ccc(Cl)c(Cl)c2)C1C(=O)Nc1ccccc1F (racemic) [Compound 14]
Giant foxtail; [1]
  Plant response rating, Foxtail, Giant: 60
Giant foxtail; [2]
  Plant response rating, Foxtail, Giant: 80
Giant foxtail; [3]
  Foxtail, Giant plant response rating: 80
Giant foxtail; [4]
  Plant response rating, Foxtail, Giant: 90
Wheat (winter wheat); [5]
  Plant response rating, Wheat: 10
Wheat (winter wheat); [6]
  Plant response rating, Wheat: 10
oat, wild; [5]
  Plant response rating, Oat, Wild: 0
oat, wild; [6]
  Plant response rating, Oat, Wild: 0
soybean; [5]
  Plant response rating, Soybean: 0
soybean; [6]
  Plant response rating, Soybean: 0
wheat; [1]
  Plant response rating, Wheat: 0
wheat; [2]
  Plant response rating, Wheat: 0
wheat; [3]
  Wheat plant response rating: 0
wheat; [4]
  Plant response rating, Wheat: 0
ragweed; [5]
  Plant response rating, Ragweed: 0
ragweed; [6]
  Plant response rating, Ragweed: 0
nutsedge, yellow; [5]
  Plant response rating, Nutsedge, Yellow: 0
nutsedge, yellow; [6]
  Plant response rating, Nutsedge, Yellow: 0
pigweed; [1]
  Plant response rating, Pigweed: 0
pigweed; [2]
  Plant response rating, Pigweed: 0
pigweed; [3]
  Pigweed plant response rating: 0
pigweed; [4]
  Plant response rating, Pigweed: 20

## O=C1NCCC1C(=O)N(c1ccc(F)c(F)c1)c1ccccc1F (centres unmarked) [Compound 5, N-(3,4-difluorophenyl)-N-(2-fluorophenyl)-2-oxo-3-pyrrolidinecarboxamide]
Giant foxtail; [3]
  Foxtail, Giant plant response rating: 90
Giant foxtail; Setaria faberi, post-emergence, 240 h, Postemergence, 125 g ai/ha, 0 to 100 scale, 0 no effect, 100 complete control, read-out: Plant response rating, Foxtail, Giant
  pest or weed control at 125 g/ha: 80%
Giant foxtail; Setaria faberi, post-emergence, 240 h, Postemergence, 500 g ai/ha, 0 to 100 scale (0 no effect, 100 complete control), read-out: Plant response rating, Foxtail, Giant
  pest or weed control at 500 g/ha: 80%
Giant foxtail; Setaria faberi, pre-emergence, 240 h, preemergence, 500 g ai/ha, 0 to 100 scale, read-out: Plant response rating, Foxtail, Giant
  pest or weed control at 500 g/ha: 100%
Wheat (winter wheat); [5]
  Plant response rating, Wheat: 0
Wheat (winter wheat); [6]
  Plant response rating, Wheat: 5
oat, wild; [5]
  Plant response rating, Oat, Wild: 0
oat, wild; [6]
  Plant response rating, Oat, Wild: 0
soybean; [5]
  Plant response rating, Soybean: 0
soybean; [6]
  Plant response rating, Soybean: 0
wheat; [3]
  Wheat plant response rating: 0
wheat; [7]
  plant injury at 500 g/ha: 0%
wheat; [8]
  plant injury at 500 g/ha: 0%
ragweed; [5]
  Plant response rating, Ragweed: 0
ragweed; [6]
  Plant response rating, Ragweed: 0
nutsedge, yellow; [5]
  Plant response rating, Nutsedge, Yellow: 0
nutsedge, yellow; [6]
  Plant response rating, Nutsedge, Yellow: 0
pigweed; [7]
  pest or weed control at 500 g/ha: 0%
pigweed; [8]
  pest or weed control at 500 g/ha: 0%
pigweed; [3]
  Pigweed plant response rating: 0

## O=C1NCC(c2ccc(F)c(F)c2)C1C(=O)Nc1cccc(F)c1F (centres unmarked) [Compound 17, N-(2,3-difluorophenyl)-4-(3,4-difluorophenyl)-2-oxo-3-pyrrolidinecarboxamide]
Giant foxtail; Setaria faberi, post-emergence, 240 h, Postemergence, 0 to 100 scale (0 no effect, 100 complete control), read-out: Plant response rating, Foxtail, Giant
  pest or weed control at 1000 g/ha: 90%
Giant foxtail; Setaria faberi, pre-emergence, 240 h, Preemergence, visual rating on 0 to 100 scale (0 no effect, 100 complete control), approx. 10 days, read-out: Plant response rating, Foxtail, Giant
  pest or weed control at 1000 g/ha: 90%
Wheat (winter wheat); [9]
  Plant response rating, Wheat: 0
Wheat (winter wheat); [10]
  Plant response rating, Wheat: 0
Wheat (winter wheat); [11]
  Plant response rating, Wheat: 0
Wheat (winter wheat); [12]
  Plant response rating, Wheat: 0
Wheat (winter wheat); [5]
  Plant response rating, Wheat: 0
Wheat (winter wheat); [6]
  Plant response rating, Wheat: 0
oat, wild; [9]
  Plant response rating, Oat, Wild: 0
oat, wild; [10]
  Plant response rating, Oat, Wild: 0
oat, wild; [11]
  Plant response rating, Oat, Wild: 0
oat, wild; [12]
  Plant response rating, Oat, Wild: 0
oat, wild; [5]
  Plant response rating, Oat, Wild: 0
oat, wild; [6]
  Plant response rating, Oat, Wild: 0
soybean; [9]
  Plant response rating, Soybean: 0
soybean; [10]
  Plant response rating, Soybean: 0
soybean; [11]
  Plant response rating, Soybean: 0
soybean; [12]
  Plant response rating, Soybean: 0
soybean; [5]
  Plant response rating, Soybean: 0
soybean; [6]
  Plant response rating, Soybean: 0
wheat; [13]
  plant injury at 1000 g/ha: 60%
wheat; [14]
  plant injury at 1000 g/ha: 70%
ragweed; [9]
  Plant response rating, Ragweed: 0
ragweed; [10]
  Plant response rating, Ragweed: 0
ragweed; [11]
  Plant response rating, Ragweed: 0
ragweed; [12]
  Plant response rating, Ragweed: 0
ragweed; [5]
  Plant response rating, Ragweed: 0
ragweed; [6]
  Plant response rating, Ragweed: 30
nutsedge, yellow; [9]
  Plant response rating, Nutsedge, Yellow: 0
nutsedge, yellow; [10]
  Plant response rating, Nutsedge, Yellow: 0
nutsedge, yellow; [11]
  Plant response rating, Nutsedge, Yellow: 0
nutsedge, yellow; [12]
  Plant response rating, Nutsedge, Yellow: 0
nutsedge, yellow; [5]
  Plant response rating, Nutsedge, Yellow: 0
nutsedge, yellow; [6]
  Plant response rating, Nutsedge, Yellow: 0
pigweed; [13]
  pest or weed control at 1000 g/ha: 40%
pigweed; [14]
  pest or weed control at 1000 g/ha: 50%

## O=C1NCC(c2cccc(C(F)(F)F)c2)C1C(=O)Nc1ccc(F)c(F)c1F (centres unmarked) [Compound 345]
Giant foxtail; [15]
  Plant response rating, Foxtail, Giant: 90
Giant foxtail; [2]
  Plant response rating, Foxtail, Giant: 90
Giant foxtail; [16]
  Plant response rating, Foxtail, Giant: 90
Giant foxtail; [17]
  Foxtail, Giant plant response rating: 90
Wheat (winter wheat); [18]
  Wheat plant response rating: 10
Wheat (winter wheat); [19]
  Plant response rating, Wheat: 70
soybean; [18]
  Soybean plant response rating: 0
soybean; [19]
  Plant response rating, Soybean: 5
wheat; [15]
  Plant response rating, Wheat: 50
ragweed; [18]
  Ragweed plant response rating: 40
ragweed; [19]
  Plant response rating, Ragweed: 15
waterhemp; [20]
  Waterhemp plant response rating: 5
waterhemp; 125 g ai/ha, scale 0 to 100
  Plant response rating, Waterhemp: 40
nutsedge, yellow; Preemergence, 31 g ai/ha, scale 0 to 100, 0 is no effect and 100 is complete control
  Nutsedge, Yellow plant response rating: 0
nutsedge, yellow; [18]
  Nutsedge, Yellow plant response rating: 0
nutsedge, yellow; [19]
  Plant response rating, Nutsedge, Yellow: 0
nutsedge, yellow; Preemergence, 250 g ai/ha
  Plant response rating (scale of 0 to 100), Nutsedge, Yellow: 0
sedge, umbrella
  Plant response rating, Sedge, Umbrella: 0
ducksalad
  Plant response rating, Ducksalad: 30
Oilseed rape; 31 g ai/ha, scale 0 to 100, 0 is no effect and 100 is complete control
  Oilseed Rape plant response rating: 50
Oilseed rape; [20]
  Oilseed Rape plant response rating: 55
Oilseed rape; 125 g ai/ha, scale 0 to 100
  Plant response rating, Oilseed Rape: 85
Oilseed rape; 250 g ai/ha
  Plant response rating (scale of 0 to 100), Oilseed Rape: 85
pigweed; [15]
  Plant response rating, Pigweed: 20
pigweed; [16]
  Plant response rating, Pigweed: 0
pigweed; [17]
  Pigweed plant response rating: 70
